Laboratory results as given in PubChem BioAssay (NCI).
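Following 48 hours of exposure in 96-well plates, responses at five concentrations were used to interpolate endpoints linearly. GI50 marks 50% less growth. TGI: concentration producing complete growth inhibition.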

Assays:
Test in all cases: NCI anticancer screen, dose series, 48 h
[1] = test system: NCI-H226 lung
[2] = test system: HS 578T breast
[3] = test system: BT-549 breast
[4] = test system: CAKI-1 renal
[5] = test system: SK-OV-3 ovarian
[6] = test system: NCI-H460 lung
[7] = test system: A498 renal
[8] = test system: HOP-92 NSCLC
[9] = test system: NCI-H23 lung
[10] = test system: COLO 205 colon
[11] = test system: TK-10 renal
[12] = test system: OVCAR-5 ovarian
[13] = test system: SR leukemia
[14] = test system: IGROV1 ovarian
[15] = test system: HCT-15 colon
[16] = test system: 786-0 renal
[17] = test system: OVCAR-4 ovarian
[18] = test system: K-562 leukemia
[19] = test system: MDA-MB-435
[20] = test system: RPMI-8226 leukemia
[21] = test system: SF-268 CNS
[22] = test system: SW-620 colon
[23] = test system: HCT-116 colon
[24] = test system: OVCAR-3 ovarian
[25] = test system: LOX IMVI melanoma
[26] = test system: HT29 colon
[27] = test system: OVCAR-8 ovarian
[28] = test system: SF-539 CNS
[29] = test system: MALME-3M melanoma
[30] = test system: U251 CNS
[31] = test system: CCRF-CEM leukemia
[32] = test system: NCI-H522 lung
[33] = test system: KM12 colon
[34] = test system: MCF7 breast
[35] = test system: ACHN renal
[36] = test system: HCC-2998 colon
[37] = test system: MOLT-4 leukemia
[38] = test system: EKVX NSCLC
[39] = test system: UACC-257 melanoma
[40] = test system: SK-MEL-28 melanoma
[41] = test system: SF-295 CNS
[42] = test system: SN12C renal
[43] = test system: HOP-62 NSCLC
[44] = test system: SNB-75 CNS
[45] = test system: NCI/ADR-RES ovarian
[46] = test system: DU-145 prostate
[47] = test system: PC-3 prostate
[48] = test system: A549 NSCLC
[49] = test system: RXF 393 renal
[50] = test system: SK-MEL-5 melanoma
[51] = test system: UO-31 renal
[52] = test system: MDA-MB-231 breast
[53] = test system: SK-MEL-2 melanoma
[54] = test system: HL-60(TB) leukemia
[55] = test system: UACC-62 melanoma
[56] = test system: T-47D breast
[57] = test system: SNB-19 CNS
[58] = test system: M14 melanoma

SMILES: N=C(N)c1ccc(-c2ccc(-c3cc(Cl)cc(Cl)c3)s2)s1
- GI50 [1]: 30.8 µM
- TGI [1]: 65.4 µM
- GI50 [2]: 2.15 µM
- TGI [2]: 5 µM
- GI50 [3]: 4.37 µM
- TGI [3]: > 100 µM
- GI50 [4]: 1.72 µM
- TGI [4]: 3.35 µM
- GI50 [5]: 3.62 µM
- TGI [5]: 17.1 µM

SMILES: O=C1C2=Nc3ccccc3C(O)(C(=O)O)N2c2ccccc21 (stereo not drawn)
- TGI [6]: 39.3 µM
- TGI [7]: 80.9 µM
- TGI [8]: > 100 µM
- TGI [9]: 54.3 µM
- TGI [10]: 36.6 µM
- TGI [1]: > 100 µM
- TGI [11]: > 100 µM
- TGI [12]: 49.4 µM
- TGI [13]: > 100 µM
- TGI [14]: > 100 µM
- TGI [15]: > 100 µM
- TGI [16]: > 100 µM
- TGI [2]: > 100 µM
- TGI [17]: 32.4 µM
- TGI [18]: > 100 µM
- TGI [19]: 5.5 µM
- TGI [20]: > 100 µM
- TGI [21]: > 100 µM
- TGI [22]: > 100 µM
- TGI [23]: 59.7 µM
- TGI [24]: 58.5 µM
- TGI [25]: 59.2 µM
- TGI [26]: 49.2 µM
- TGI [27]: > 100 µM
- TGI [28]: 48.4 µM
- TGI [29]: 28.2 µM
- TGI [30]: > 100 µM
- TGI [31]: 94.9 µM
- TGI [32]: 50.2 µM
- TGI [33]: > 100 µM
- TGI [34]: 46.8 µM
- TGI [35]: > 100 µM
- TGI [36]: > 100 µM
- TGI [37]: > 100 µM
- TGI [38]: > 100 µM
- TGI [39]: 24.2 µM
- TGI [40]: > 100 µM
- TGI [41]: 39.9 µM
- TGI [42]: > 100 µM
- TGI [4]: > 100 µM
- TGI [43]: > 100 µM
- TGI [44]: 74.2 µM
- TGI [45]: > 100 µM
- TGI [46]: 29.8 µM
- TGI [47]: 20 µM
- TGI [48]: 24.6 µM
- TGI [49]: > 100 µM
- TGI [50]: 27.5 µM
- TGI [51]: > 100 µM
- TGI [52]: 35.4 µM
- TGI [53]: 43.4 µM
- TGI [54]: 77 µM

SMILES: c1ccc(-c2nc(N3CCCNCC3)c3nc(-c4ccccc4)oc3n2)cc1
- GI50 [6]: 1.86 µM
- TGI [6]: 3.54 µM
- GI50 [7]: 1.07 µM
- TGI [7]: 2.3 µM
- GI50 [9]: 1.71 µM
- TGI [9]: 3.23 µM
- GI50 [10]: 1.6 µM
- TGI [10]: 3.38 µM
- GI50 [11]: 1.53 µM
- TGI [11]: 3 µM
- GI50 [12]: 1.7 µM
- TGI [12]: 3.18 µM
- GI50 [14]: 1.59 µM
- TGI [14]: 3.13 µM
- GI50 [15]: 1.47 µM
- TGI [15]: 2.89 µM
- GI50 [16]: 1.73 µM
- TGI [16]: 3.45 µM
- GI50 [2]: 1.86 µM
- TGI [2]: 3.94 µM
- GI50 [55]: 1.81 µM
- TGI [55]: 3.34 µM
- GI50 [17]: 1.98 µM
- TGI [17]: 3.67 µM
- GI50 [19]: 1.64 µM
- TGI [19]: 3.08 µM
- GI50 [21]: 1.76 µM
- TGI [21]: 3.62 µM
- GI50 [22]: 1.76 µM
- TGI [22]: 3.47 µM
- GI50 [23]: 1.65 µM
- TGI [23]: 3.35 µM
- GI50 [24]: 1.75 µM
- TGI [24]: 3.21 µM
- GI50 [26]: 1.76 µM
- TGI [26]: 3.72 µM
- GI50 [56]: 1.78 µM
- TGI [56]: 3.64 µM
- GI50 [27]: 2.13 µM
- TGI [27]: 4.93 µM
- GI50 [28]: 1.64 µM
- TGI [28]: 3.03 µM
- GI50 [29]: 1.77 µM
- TGI [29]: 3.33 µM
- GI50 [30]: 1.74 µM
- TGI [30]: 3.31 µM
- GI50 [57]: 1.71 µM
- TGI [57]: 3.34 µM
- GI50 [33]: 1.83 µM
- TGI [33]: 3.38 µM
- GI50 [34]: 1.67 µM
- TGI [34]: 3.34 µM
- GI50 [35]: 1.71 µM
- TGI [35]: 3.11 µM
- GI50 [36]: 1.53 µM
- TGI [36]: 3.02 µM
- GI50 [38]: 1.65 µM
- TGI [38]: 3.17 µM
- GI50 [39]: 1.8 µM
- TGI [39]: 3.43 µM
- GI50 [40]: 1.71 µM
- TGI [40]: 3.15 µM
- GI50 [41]: 1.81 µM
- TGI [41]: 3.25 µM
- GI50 [42]: 1.74 µM
- TGI [42]: 3.38 µM
- GI50 [4]: 1.52 µM
- TGI [4]: 3.02 µM
- GI50 [5]: 1.74 µM
- TGI [5]: 3.19 µM
- GI50 [43]: 1.58 µM
- TGI [43]: 3.23 µM
- GI50 [45]: 1.91 µM
- TGI [45]: 3.86 µM
- GI50 [46]: 1.8 µM
- TGI [46]: 3.26 µM
- GI50 [48]: 1.8 µM
- TGI [48]: 3.71 µM
- GI50 [49]: 1.66 µM
- TGI [49]: 3.29 µM
- GI50 [50]: 1.77 µM
- TGI [50]: 3.18 µM
- GI50 [51]: 1.35 µM
- TGI [51]: 2.71 µM
- GI50 [52]: 1.72 µM
- TGI [52]: 3.21 µM
- GI50 [58]: 1.79 µM
- TGI [58]: 3.4 µM
- GI50 [53]: 1.83 µM
- TGI [53]: 3.49 µM
- GI50 [54]: 1.83 µM
- TGI [54]: 3.55 µM

SMILES: O=[N+]([O-])c1ccc2c(c1)c(N=NC(=S)Nc1ccc(Cl)cc1)c(O)n2CN1CCOCC1
- TGI [6]: 20.3 µM
- TGI [8]: 21.2 µM
- TGI [9]: 9.44 µM
- TGI [10]: 27.8 µM
- TGI [1]: 23.7 µM
- TGI [11]: 24.5 µM
- TGI [13]: 8.44 µM
- TGI [14]: 18.1 µM
- TGI [15]: 11.4 µM
- TGI [16]: 16.7 µM
- TGI [2]: 28.4 µM
- TGI [55]: 17.7 µM
- TGI [17]: 21.6 µM
- TGI [19]: 19.2 µM
- TGI [21]: 16.5 µM
- TGI [22]: 30.8 µM
- TGI [23]: 15.7 µM
- TGI [24]: 17.6 µM
- TGI [25]: 23.8 µM
- TGI [56]: 20.8 µM
- TGI [27]: 23.4 µM
- TGI [28]: 26.4 µM
- TGI [29]: 18.8 µM
- TGI [30]: 20.1 µM
- TGI [31]: 28 µM
- TGI [32]: 23.2 µM
- TGI [57]: 20.8 µM
- TGI [33]: 24 µM
- TGI [34]: 18.8 µM
- TGI [35]: 16.4 µM
- TGI [37]: 2.97 µM
- TGI [39]: 26.5 µM
- TGI [40]: 26.6 µM
- TGI [41]: 18.3 µM
- TGI [42]: 15.7 µM
- TGI [4]: 12.4 µM
- TGI [5]: 26.2 µM
- TGI [44]: 25.8 µM
- TGI [45]: 5.9 µM
- TGI [46]: 22.2 µM
- TGI [47]: 21.9 µM
- TGI [48]: 20.8 µM
- TGI [49]: 19.9 µM
- TGI [50]: 17.7 µM
- TGI [51]: 15.7 µM
- TGI [52]: 30.6 µM
- TGI [58]: 21.7 µM
- TGI [53]: 26.3 µM
- TGI [54]: 11.5 µM
